{"source": "patent US7153822B2", "about": "“Compositions and methods for modulating connexin hemichannels” (Wyeth, priority 2002, dated 2006)", "key": {"[1]": {"tested_on": "osteoblastic rat osteosarcoma cell lines", "details": "dye transfer after Lucifer Yellow injection; cited from earlier work"}, "[2]": {"tested_on": "connexin 43 (Cx43)", "assay": "immunoprecipitation and immunoblot of phosphorylated connexin 43", "format": "cell-based", "method": "H9c2 cells were seeded in 24-multi well dishes in a density of 7,900 cells/cm^2 (˜15,000 cells/well) and grown for 3 days in MEM suplemented with 10% foetal calf serum (FCS) and 1000 units penicillin/1000 μg streptomycin (pen/strep) in an atmosphere of 5% CO2 and 100% humidity at 37° C.\nThe labelled cells were incubated in Triton X-100 lysis buffer (˜5*10^7 cells/ml) for 1 hr at 4° C. The lysate is centrifuged 30 min at 20,000*g for 30 min. The supernatant was precleared by adding 10 ul Sepharose per 200 μl supernatant. The precleared supernatant were then added 0.5–1 μg phospho-tyrosine or phospho-serine antibodies (Sigma) and incubated for 1.5 hr at 4° C. in an orbital shaker. The antibody-complex was then captured by incubation with 50 μl of a 1:1 slurry of protein G Sepharose for 1.5 hr. Finally the complex were extensively washed with 0.1% (w/v) Triton X-100, 50 mM Tris, pH 7.4, 300 mM NaCl and 5 mM EDTA.\nThe complexes were loaded onto a 12% SDS gel and blotted onto a PVDF membrane. The membrane is blocked with 0.1% Tween 20, 50 mM Tris, pH 7.4, 300 mM NaCl, 5% dry milk (TBST) for minimum 2 h. The membrane was subsequently incubated with connexin 43 specific antibodies (Zymed) for 1.5 h at RT and developed with ECL+ (Amersham)."}, "[3]": {"tested_on": "infarcted mice", "assay": "bone marrow cell transplantation after myocardial infarction (design of Orlic et al)", "format": "in vivo", "details": "repeated administration during the proliferation process", "from_the_text": "Myocardial infarction leads to loss of tissue and impairment of cardiac performance. The remaining myocytes are unable to reconstitute the necrotic tissue, and the post-infarcted heart deteriorates with time. Injury to a target organ is sensed by distant stem cells, which migrate to the site of damage and undergo alternate stem cell differentiation; these events promote structural and functional repair. This high degree of stem cell plasticity prompted Orlic et al (Nature 410, 701–705 (2001)) to test whether dead myocardium could be restored by transplanting bone marrow cells in infarcted mice. They sorted lineage-negative (Lin−) bone marrow cells from transgenic mice expressing enhanced green fluorescent protein by fluorescence-activated cell sorting on the basis of c-kit expression. Shortly after coronary ligation, Lin− c-kitPOS cells were injected in the contracting wall bordering the infarct. […] The developing tissue comprised proliferating myocytes and vascular structures. Their studies indicate that locally delivered bone marrow cells can generate de novo myocardium, ameliorating the outcome of coronary artery disease. […]"}, "[4]": {"tested_on": "cultured primary cardiomyocytes", "assay": "stimulus-activation interval (conduction velocity) during glucose removal, patch clamp", "format": "cell-based, rat", "details": "10 nM, superfusion 20 min after 15 min without glucose", "method": "1. Cell culture: In short the hearts from 20 neonate rats (age 1–2 days) are excised aseptically. The ventricles are isolated and cut into 4–6 pieces, which are digested in several steps in a Hanks buffered saline with trypsin and DNAse. The cells are then centrifuged and resuspended in MEM with 5% FCS. To eliminate non-muscle cells the suspension is preplated in petri dishes for 30 minutes at 37° C. The cells in suspension are then seeded onto collagen coated coverslips. Seeding density will be adjusted to give confluent cultures.\n2. Electrophysiology: The cover slips with confluent cardiomyocytes are mounted in an open chamber on the stage of an inverted microscope and superfused with Dulbeccos phosphate buffered saline (PBS) by gravity driven flow at 1 ml/min, 37° C. The solution (PBS) contain (in mM): Na+ 152, K+ 4.2, Cl− 141.5, PO43− 9.5, Ca2+ 0.9, Mg2+ 0.5, pH 7.4. Patch clamp pipettes are pulled from 1.5 mm glass capillaries (GC150F-15, Harvard Apparatus) on a Sutter Flaming-Brown P-87 microelectrode puller and fire polished to a resistance of 4–6 MW. […]\nThe cells were perfused with control solution with 0.1 g/l BSA until a stable baseline in the stimulus-activation interval (SAI) was established. […] Date are expressed as percent change relative to baseline prior to removal of glucose from the media."}}, "note": "Entries after “also recorded” stand apart in the source; their conditions may differ. Square brackets hold non-standard residues; d marks the D form. Peptide text beside a SMILES is read from it. dHyp = O=C(O)[C@H]1C[C@H](O)CN1"}
{"smiles": "CC(=O)N[C@H](Cc1ccc(O)cc1)C(=O)N1CCC[C@@H]1C(=O)N1C[C@@H](O)C[C@@H]1C(=O)NCC(=O)N[C@H](C)C(=O)NCC(N)=O", "note": "[Compound 1, Ac-D-Tyr-D-Pro-D-4Hyp-Gly-D-Ala-Gly-NH2] (Ac-[dY][dP][dHyp]G[dA]G-NH2)", "values": [{"measurement": "reversal of hypoxia-induced decrease of calcium wave propagation", "setting": "[1]", "value": "completely reversed"}, {"measurement": "connexin 43 tyrosine phosphorylation", "setting": "[2]; cardiomyocytes exposed for 4 h with 0, 1, 10, 50 and 100 nM", "value": "increase connexin 43 tyrosine phosphorylation"}, {"measurement": "tyrosine phosphorylation of connexin 43", "setting": "[2]; cultured H9c2 cardiomyocytes", "value": "phosphorylation of Cx43 tyrosine; also recorded: mediates tyrosine phosphorylation of connexin 43"}, {"measurement": "Ser-phosphorylation of connexin 43", "setting": "[2]; in some experiments", "value": "decrease Ser-phosphorylation"}, {"measurement": "connexin 43 expression", "setting": "[3]", "value": "increase in connexin 43 expression"}, {"measurement": "stimulus-activation interval", "setting": "[4]", "value": "decreased the stimulus-activation interval"}]}
